Read-outs that look alike come from different tables or passages of the source.
Experiments:
aged C57BL/6N-Nia mice = test: Morris watermaze, spatial learning and memory in aged rodents (Example 19); type: in vivo, mouse; conditions: 10 mg/kg daily; retention testing after 3 weeks of dosing
Source text: The Morris watermaze is widely used for assessing spatial memory formation and retention in experimental animals. The test depends on the animal's ability to utilize spatial visual information in order to locate a submerged escape platform in a water tank. It is important that the tank itself be as devoid of specific visual features as possible-thus, it is always circular in shape, the sides are kept smooth and in uniform dull colors and the water is rendered opaque with nontoxic watercolor pigment or powdered milk. This is to ensure that the animal navigates only by the use of more distant visual cues, or by the use of intra-maze cues specifically provided by the experimenter. The tank is filled to a level which forces the animal to swim actively. Normal mice and rats react […] to the swimming part of the test and will climb onto, and remain on, an escape platform from which they are removed to a heated resting cage. If the platform is visible (i.e. above the surface), animals placed in the tank will quickly learn to home in on the platform and climb out onto it. […] Swim Distances (cm) were analyzed in a 7×5 ANOVA including Groups and Blocks (1-5) as factors in the analysis, treating Blocks as a repeated measure.

[1] = tested on: retinal ganglion cells, optic nerve axons and myelin; test: Retinal ischemia (FIG. 1, FIG. 2); type: in vivo, rat; conditions: 10 mg/kg s.c. 1 hour prior to ischemia and 10 mg/kg/day for next four days; 28 days after ischemia
Source text: Retinal ganglion cells were retrogradely labeled in adult rats by bilateral injection of fluorogold in their lateral geniculate nuclei. Labeled ganglion cells in the normal rat retina appear as white profiles against the dark background (FIG. 1A). Complete retinal ischemia was produced by infusing normal saline solution into the retinal vitreous cavity of each eye until the intraocular pressure exceeded arterial blood pressure. 28 days after the ischemic episode extensive degeneration of retinal ganglion cell was evidenced by massive reduction in the density of fluorogold labeled cells (FIG. 1B).

[2] = Clearance (Table V, Comments); type: in vitro ADME
[3] = tested on: retinal ganglion cells and optic nerve axons; test: Optic nerve transection, 14 or 28 day treatment, evaluated 90 days after transection (Example 6, Table I); type: in vivo, rat; conditions: 90 days after ONT
Source text: All eyes and optic nerves stumps were removed.

| SMILES | spatial memory performance (swim distance), retention testing, aged impaired mice vs vehicle (aged C57BL/6N-Nia mice) | protection of retinal ganglion cells after retinal ischemia (fluorogold labeled cells) [1] | Clearance [2] | Distal optic nerve myelin basic protein Density: shrinkage of cross sectional area ([3]; GPI 1046 14 days, compared to sham control) | Distal optic nerve myelin basic protein Density: myelin loss ([3]; GPI 1046 14 days, cross sectional area multiplied by myelin density) | Distal optic nerve myelin basic protein Density: less shrinkage of cross sectional area ([3]; GPI 1046 28 days) | Clearance ([2]; unit printed as μl/ml) |
| --- | --- | --- | --- | --- | --- | --- | --- |
| CCC(C)(C)C(=O)C(=O)N1CCC[C@H]1C(=O)OCCCc1cccnc1 [GPI 1046] | significantly enhanced spatial memory performance | noticeable protection of a large proportion of the vulnerable ganglion cell population | 63.5 µL/min | did not protect against shrinkage of the distal stump | slightly increase the density of myelin | prevented cross sectional shrinkage |  |
| CN(C)C(=O)N1CCC[C@H]1C(=O)SCCCc1ccccc1 [N] |  |  |  |  |  |  | 21.9 |
